Columns and labels:
PI3Kγ = molecular target: T1, PI3Kγ (Mus musculus, UniProt Q9JHG7); test: PI3Kγ-dependent cell-based assay: C5a-mediated AKT phosphorylation in RAW-264 cells; set-up: species or system murine; conditions: C5a-induced AKT phosphorylation, RAW-264 macrophages
T1 construct: endogenous in cells; host or cells: RAW-264 macrophage cells (ATCC)
Method: PDGF-BB-induced AKT phosphorylation in Swiss-3T3 fibroblasts is mediated by p110α. C5a-induced AKT phosphorylation in RAW-264 murine macrophages is mediated exclusively by p110γ.
PI3Kγ-Dependent Cell-Based Assay: C5a-Mediated AKT Phosphorylation in RAW-264 Cells
RAW-264 macrophage cells (American Type Culture Collection) were cultured with Dulbecco's modified Eagle medium (DMEM) containing 10% fetal bovine serum and the antibiotics penicillin and streptomycin. Cells were seeded on a 96-well Tissue Culture Plate at 100,000 to 200,000 cells/well the day before the experiment. Next day, cells were starved for 2 hr in 0.1% FBS containing medium. The cells were pretreated with inhibitors or DMSO for 2 hr and stimulated for 5 min with 75 ng/ml C5a (R&D) at 37° C. in 5% CO2. The culture medium was removed and cells were fixed for 20 min at room temperature by addition of 100 μl of 4% cell fixing buffer to each well. AKT phosphorylation and total AKT was detected by ELISA.
Detection of Phospho-Ser-473 AKT and Total AKT by ELISA
The fixed cells were washed twice with 150 μl of wash buffer (WB) and quenched by incubating with 100 μl of Quenching Buffer for 20 min at room temperature. Cells were washed once with 150 μl WB and blocked by incubating with 100 μl of Blocking Buffer for 1 hr at room temperature. Cells were incubated with 50 μl of primary antibody diluted in Blocking Buffer, either phospho-Ser-473 AKT specific (1:150 dilution) or total-AKT antibody (1:200 dilution), to each specific well. The negative control wells contained 50 μl of Blocking Buffer. Plates were sealed with plate sealing film and incubated overnight at 4° C. Cells were washed twice with 150 μl WB followed by addition of 50 μl per well of DELFIA secondary antibody (50 ng/well, diluted in DELFIA Assay Buffer). After 2 hr incubation at room temperature, cells were washed 4 times with 150 μl of Europium Wash Solution followed by addition of 100 μl of DELFIA Enhancing Solution to each well. Plates were incubated for 5 min in the dark and fluorescent signal was read using SpectraMax M5™ (Molecular Devices). Total AKT level was determined to verify equal cell number per well. The average background fluorescence values from wells that received vehicle control in the absence of PDGF-BB or C5a were subtracted from all the values of experimental conditions. Fluorescence values corresponding to phosphorylated AKT from wells that received PDGF-BB or C5a were normalized to 100% and compound effect was plotted as % change relative to the vehicle control.

PI3Kβ (p110β/p85α) = molecular target: T2, PI3Kβ (p110β/p85α) (Homo sapiens, UniProt P42338); test: PI3K biochemical enzyme assay (Adapta universal kinase assay), p110 beta/p85 alpha; conditions: for IC50: Table 2, PI3k biochemical assays, read-out: p110β/p85α IC50
T2 construct: purchased Invitrogen
Method: This example describes a method of obtaining in vitro activity data concerning the effect of compounds of on various PI3K isoforms. The effect of compounds on the kinase activity of Class I PI3Ks was measured at Invitrogen by using the Adapta® universal kinase assay. It was a homogenous, fluorescent based immunoassay for the detection of ADP produced by the kinase reaction. This assay can be divided into two phases: a kinase reaction phase, and an ADP detection phase. In the kinase reaction phase, all components required for the kinase reaction were added to the well, and the reaction was allowed to incubate for 60 minutes. After the reaction, a detection solution consisting of a europium labeled anti-ADP antibody, an Alexa Fluor® 647 labeled ADP tracer, and EDTA (to stop the kinase reaction) was added to the assay well. ADP formed by the kinase reaction (in the absence of an inhibitor) displaced the Alexa Fluor® 647 labeled ADP tracer from the antibody, resulting in a decrease in the TR-FRET signal.
ADP formation was determined by calculating the emission ratio from the assay well. The emission ratio was calculated by dividing the intensity of the tracer (acceptor) emission by the intensity of the Eu (donor) emission at 615 nm as shown in the equation below.
The Test Compounds were screened in 1% DMSO (final) in the well. All Substrate/Kinase Mixtures were diluted to a 2× working concentration in the appropriate Kinase Buffer as described below for the individual kinase:
The 2× p 110beta/p85 alpha/PIP2:PS mixture was prepared in 50 mM HEPES pH 7.5, 100 mM NaCl, 0.03% CHAPS, 1 mM EGTA, 3 mM mgCl2, and 2 mM DTT. The final 10 μL Kinase Reaction consisted of 35.4 ng p110 beta/p85 alpha and 50 μM PIP2:PS. After the 1 hour Kinase Reaction incubation, 5 μL of Detection Mix was added.
The Detection mix consisted of EDTA (30 mM), Eu-anti-ADP antibody (30 nM) and ADP tracer. All ATP Solutions were diluted to a 4× working concentration in water and used at the Km apparent concentrations for each individual kinase.

T2 sequence (P42338 whole entry): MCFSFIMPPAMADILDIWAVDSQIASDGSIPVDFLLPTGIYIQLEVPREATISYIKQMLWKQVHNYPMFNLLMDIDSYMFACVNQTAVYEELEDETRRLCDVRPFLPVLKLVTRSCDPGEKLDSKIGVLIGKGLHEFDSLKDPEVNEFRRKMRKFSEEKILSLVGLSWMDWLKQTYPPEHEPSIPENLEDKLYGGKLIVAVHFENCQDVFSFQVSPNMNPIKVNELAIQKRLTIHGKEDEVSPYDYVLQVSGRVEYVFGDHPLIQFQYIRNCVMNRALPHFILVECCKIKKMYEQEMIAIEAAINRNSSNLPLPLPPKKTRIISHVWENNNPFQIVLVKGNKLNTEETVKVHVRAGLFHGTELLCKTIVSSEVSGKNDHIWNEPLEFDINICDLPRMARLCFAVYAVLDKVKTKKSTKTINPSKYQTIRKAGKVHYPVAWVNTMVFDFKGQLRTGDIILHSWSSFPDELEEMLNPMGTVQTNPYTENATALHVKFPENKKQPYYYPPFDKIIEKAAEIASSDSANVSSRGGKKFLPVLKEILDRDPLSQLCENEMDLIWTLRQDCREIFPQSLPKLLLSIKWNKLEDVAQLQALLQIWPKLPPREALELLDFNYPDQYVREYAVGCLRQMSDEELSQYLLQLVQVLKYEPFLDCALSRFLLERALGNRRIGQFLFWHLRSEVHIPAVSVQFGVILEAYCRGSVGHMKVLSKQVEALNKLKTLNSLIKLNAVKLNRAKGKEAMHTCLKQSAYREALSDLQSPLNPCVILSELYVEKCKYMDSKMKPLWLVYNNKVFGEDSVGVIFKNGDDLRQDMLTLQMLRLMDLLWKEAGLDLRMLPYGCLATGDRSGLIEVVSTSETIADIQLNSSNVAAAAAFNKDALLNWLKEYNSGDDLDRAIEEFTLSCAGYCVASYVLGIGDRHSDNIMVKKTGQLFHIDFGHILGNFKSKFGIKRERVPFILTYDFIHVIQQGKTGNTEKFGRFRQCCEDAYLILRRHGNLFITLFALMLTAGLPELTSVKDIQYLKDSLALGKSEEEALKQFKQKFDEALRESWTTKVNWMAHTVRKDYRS
T2 sequence (P27986 whole entry partner): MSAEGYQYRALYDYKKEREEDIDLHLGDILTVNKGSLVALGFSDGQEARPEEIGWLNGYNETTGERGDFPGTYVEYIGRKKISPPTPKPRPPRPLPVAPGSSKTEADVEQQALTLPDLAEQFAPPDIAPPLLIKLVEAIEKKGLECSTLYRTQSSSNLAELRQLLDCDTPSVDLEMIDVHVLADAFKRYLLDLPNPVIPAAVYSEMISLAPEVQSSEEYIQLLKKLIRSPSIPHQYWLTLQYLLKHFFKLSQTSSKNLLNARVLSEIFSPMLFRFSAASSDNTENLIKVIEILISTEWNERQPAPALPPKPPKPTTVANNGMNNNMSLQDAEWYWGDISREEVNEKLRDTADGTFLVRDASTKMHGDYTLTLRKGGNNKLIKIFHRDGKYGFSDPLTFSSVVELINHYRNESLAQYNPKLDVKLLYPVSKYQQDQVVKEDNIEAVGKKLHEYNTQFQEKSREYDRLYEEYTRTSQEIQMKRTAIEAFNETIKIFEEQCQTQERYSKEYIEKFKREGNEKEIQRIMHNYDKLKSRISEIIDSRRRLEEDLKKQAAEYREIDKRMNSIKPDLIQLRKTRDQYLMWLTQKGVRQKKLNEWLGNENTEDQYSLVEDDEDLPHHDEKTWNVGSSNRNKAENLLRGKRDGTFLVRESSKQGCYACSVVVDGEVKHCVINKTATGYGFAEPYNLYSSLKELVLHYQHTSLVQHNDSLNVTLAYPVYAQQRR
T1 sequence (Q9JHG7 whole entry): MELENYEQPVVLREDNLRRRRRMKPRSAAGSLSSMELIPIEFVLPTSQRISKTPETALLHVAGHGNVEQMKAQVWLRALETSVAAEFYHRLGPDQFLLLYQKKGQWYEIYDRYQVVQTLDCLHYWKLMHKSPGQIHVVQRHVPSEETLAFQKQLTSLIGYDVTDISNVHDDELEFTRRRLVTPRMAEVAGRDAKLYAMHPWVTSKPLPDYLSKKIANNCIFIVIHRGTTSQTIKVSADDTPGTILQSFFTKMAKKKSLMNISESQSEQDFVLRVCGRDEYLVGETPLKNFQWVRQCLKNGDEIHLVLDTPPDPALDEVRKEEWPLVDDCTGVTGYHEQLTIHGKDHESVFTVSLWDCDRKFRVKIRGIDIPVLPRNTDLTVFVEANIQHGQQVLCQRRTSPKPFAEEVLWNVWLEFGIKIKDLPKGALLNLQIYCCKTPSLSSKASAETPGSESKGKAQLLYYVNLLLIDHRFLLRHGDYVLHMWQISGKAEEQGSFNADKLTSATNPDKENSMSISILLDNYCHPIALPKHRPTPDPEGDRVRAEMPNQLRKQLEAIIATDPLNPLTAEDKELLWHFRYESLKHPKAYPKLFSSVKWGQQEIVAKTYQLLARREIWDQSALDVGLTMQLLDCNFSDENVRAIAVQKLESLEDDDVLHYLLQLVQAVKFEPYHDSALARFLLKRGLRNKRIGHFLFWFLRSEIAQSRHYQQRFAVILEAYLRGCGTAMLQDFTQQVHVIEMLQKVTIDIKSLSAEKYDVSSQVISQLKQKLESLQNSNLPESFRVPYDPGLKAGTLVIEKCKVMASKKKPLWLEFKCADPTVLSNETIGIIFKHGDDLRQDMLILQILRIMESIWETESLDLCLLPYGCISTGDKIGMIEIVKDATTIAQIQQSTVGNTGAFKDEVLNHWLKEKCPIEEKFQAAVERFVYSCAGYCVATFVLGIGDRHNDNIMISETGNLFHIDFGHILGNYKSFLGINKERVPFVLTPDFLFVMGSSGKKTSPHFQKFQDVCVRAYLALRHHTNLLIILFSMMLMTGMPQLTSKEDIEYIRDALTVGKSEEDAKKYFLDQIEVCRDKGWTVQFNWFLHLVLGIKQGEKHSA

Row | SMILES | EC50 (PI3Kγ) | inhibition at 10 µM (PI3Kβ (p110β/p85α); read-out: PI3Kβ % inhib) | IC50 (PI3Kβ (p110β/p85α)) | inhibition at 1 µM (PI3Kβ (p110β/p85α); 1 μM, read-out: PI3Kβ % inhib)
1 | CC(Nc1ncnc2[nH]cnc12)c1nc2ccccc2nc1-c1ccccc1 (stereo not shown) [Compound Q1] | 4.62 µM | 72% | > 10 µM | 
2 | CC(Nc1ncnc2[nH]cnc12)c1nc2ccccc2nc1-c1cc(F)cc(F)c1 (stereo not shown) [Compound Q2, N-{1-[3-(3,5-difluorophenyl)quinoxalin-2-yl]ethyl}-9H-purin-6-amine] | > 20 µM | 8% | > 10 µM | 
3 | Cc1cccc(-c2nc3ccccc3nc2C(C)Nc2ncnc3[nH]cnc23)c1 (stereo not shown) [Compound Q3] | > 20 µM | 25% | > 10 µM | 
4 | Cc1cccc2nc(C(C)Nc3nc(N)nc4[nH]cnc34)c(-c3ccccc3)nc12 (stereo not shown) [Compound Q4] | 0.344 µM | 77% | 1.13 µM | 
5 | Cc1cccc2nc(C(C)Nc3nc(N)nc4[nH]cnc34)c(-c3ccc(F)cc3)nc12 (stereo not shown) [Compound Q5] | 0.628 µM | 85% | 0.459 µM | 23%
6 | CCC(Nc1ncnc2[nH]cnc12)c1nc2cccc(F)c2nc1-c1ccccc1 (stereo not shown) [Compound Q9] | > 20 µM | 60% | > 10 µM | 
7 | CCC(Nc1ncnc2[nH]cnc12)c1nc2ccccc2nc1-c1ccccc1 (stereo not shown) [Compound Q12] | > 20 µM | 75% | > 10 µM | 

— patent publication US20140235643A1, “NOVEL QUINOXALINE INHIBITORS OF PI3K” (GILEAD CALISTOGA LLC, priority 2011, published 2014)
